# PubChem BioAssay (NCI)
#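 Step 1: Grow cells in 96-well plates. Step 2: Expose to compound for 48 hours at 5 concentrations. Step 3: Interpolate endpoints linearly; if unreached, use highest concentration. TGI: total growth inhibition.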
# Columns and labels:
# Test in all cases: growth of human tumour cells (NCI), 48 h
# 786-0 renal = tested on: 786-0 renal
# SNB-75 CNS = tested on: SNB-75 CNS
# NCI-H460 lung = tested on: NCI-H460 lung
# NCI-H226 lung = tested on: NCI-H226 lung
# KM12 colon = tested on: KM12 colon
# RPMI-8226 leukemia = tested on: RPMI-8226 leukemia
# OVCAR-5 ovarian = tested on: OVCAR-5 ovarian
# MCF7 breast = tested on: MCF7 breast
# HCT-15 colon = tested on: HCT-15 colon
# SF-295 CNS = tested on: SF-295 CNS
# TK-10 renal = tested on: TK-10 renal
# PC-3 prostate = tested on: PC-3 prostate
# A549 NSCLC = tested on: A549 NSCLC
# SK-MEL-5 melanoma = tested on: SK-MEL-5 melanoma
# SNB-19 CNS = tested on: SNB-19 CNS
# RXF 393 renal = tested on: RXF 393 renal
# SK-MEL-2 melanoma = tested on: SK-MEL-2 melanoma
# HCT-116 colon = tested on: HCT-116 colon
# K-562 leukemia = tested on: K-562 leukemia
# SK-MEL-28 melanoma = tested on: SK-MEL-28 melanoma
# SW-620 colon = tested on: SW-620 colon
# IGROV1 ovarian = tested on: IGROV1 ovarian
# MOLT-4 leukemia = tested on: MOLT-4 leukemia
# SF-268 CNS = tested on: SF-268 CNS
# U251 CNS = tested on: U251 CNS
# BT-549 breast = tested on: BT-549 breast
# UACC-62 melanoma = tested on: UACC-62 melanoma
# MDA-N = tested on: MDA-N
# UACC-257 melanoma = tested on: UACC-257 melanoma
# CAKI-1 renal = tested on: CAKI-1 renal
# OVCAR-8 ovarian = tested on: OVCAR-8 ovarian
# MDA-MB-435 = tested on: MDA-MB-435
# MALME-3M melanoma = tested on: MALME-3M melanoma
# HT29 colon = tested on: HT29 colon
# HL-60(TB) leukemia = tested on: HL-60(TB) leukemia
# SF-539 CNS = tested on: SF-539 CNS
# T-47D breast = tested on: T-47D breast
# A498 renal = tested on: A498 renal
# HCC-2998 colon = tested on: HCC-2998 colon
# MDA-MB-231 breast = tested on: MDA-MB-231 breast
# SN12C renal = tested on: SN12C renal
# NCI/ADR-RES ovarian = tested on: NCI/ADR-RES ovarian
# UO-31 renal = tested on: UO-31 renal
# DU-145 prostate = tested on: DU-145 prostate
# NCI-H23 lung = tested on: NCI-H23 lung
# ACHN renal = tested on: ACHN renal
# SR leukemia = tested on: SR leukemia
# M14 melanoma = tested on: M14 melanoma
# CCRF-CEM leukemia = tested on: CCRF-CEM leukemia
# NCI-H522 lung = tested on: NCI-H522 lung
# HOP-62 NSCLC = tested on: HOP-62 NSCLC
# SK-OV-3 ovarian = tested on: SK-OV-3 ovarian
# OVCAR-3 ovarian = tested on: OVCAR-3 ovarian
# HS 578T breast = tested on: HS 578T breast
# EKVX NSCLC = tested on: EKVX NSCLC
# COLO 205 colon = tested on: COLO 205 colon
# HOP-92 NSCLC = tested on: HOP-92 NSCLC
compound,measurement,setting,value
Cc1ccc(Cc2n[nH]c(=O)n2-c2ccccc2)cc1,TGI,786-0 renal,> 100 µM
same,TGI,SNB-75 CNS,> 100 µM
same,TGI,NCI-H460 lung,> 100 µM
same,TGI,NCI-H226 lung,> 100 µM
same,TGI,KM12 colon,> 100 µM
same,TGI,RPMI-8226 leukemia,76 µM
same,TGI,OVCAR-5 ovarian,> 100 µM
same,TGI,MCF7 breast,> 100 µM
same,TGI,HCT-15 colon,> 100 µM
same,TGI,SF-295 CNS,> 100 µM
same,TGI,TK-10 renal,> 100 µM
same,TGI,PC-3 prostate,> 100 µM
same,TGI,A549 NSCLC,> 100 µM
same,TGI,SK-MEL-5 melanoma,> 100 µM
same,TGI,SNB-19 CNS,> 100 µM
same,TGI,RXF 393 renal,> 100 µM
same,TGI,SK-MEL-2 melanoma,> 100 µM
same,TGI,HCT-116 colon,> 100 µM
same,TGI,K-562 leukemia,> 100 µM
same,TGI,SK-MEL-28 melanoma,> 100 µM
same,TGI,SW-620 colon,> 100 µM
same,TGI,IGROV1 ovarian,> 100 µM
same,TGI,MOLT-4 leukemia,> 100 µM
same,TGI,SF-268 CNS,> 100 µM
same,TGI,U251 CNS,> 100 µM
same,TGI,BT-549 breast,> 100 µM
same,TGI,UACC-62 melanoma,> 100 µM
same,TGI,MDA-N,> 100 µM
same,TGI,UACC-257 melanoma,> 100 µM
same,TGI,CAKI-1 renal,> 100 µM
same,TGI,OVCAR-8 ovarian,> 100 µM
same,TGI,MDA-MB-435,> 100 µM
same,TGI,MALME-3M melanoma,> 100 µM
same,TGI,HT29 colon,> 100 µM
same,TGI,HL-60(TB) leukemia,> 100 µM
same,TGI,SF-539 CNS,> 100 µM
same,TGI,T-47D breast,61.8 µM
same,TGI,A498 renal,> 100 µM
same,TGI,HCC-2998 colon,> 100 µM
same,TGI,MDA-MB-231 breast,> 100 µM
same,TGI,SN12C renal,> 100 µM
same,TGI,NCI/ADR-RES ovarian,> 100 µM
same,TGI,UO-31 renal,> 100 µM
same,TGI,DU-145 prostate,> 100 µM
same,TGI,NCI-H23 lung,> 100 µM
same,TGI,ACHN renal,> 100 µM
same,TGI,SR leukemia,> 100 µM
CC1=NNC(=O)C1C1CC(c2c[nH]c3ccccc23)=NNC1=S (stereo not given),TGI,786-0 renal,> 100 µM
same,TGI,SNB-75 CNS,> 100 µM
same,TGI,NCI-H460 lung,> 100 µM
same,TGI,NCI-H226 lung,> 100 µM
same,TGI,KM12 colon,> 100 µM
same,TGI,M14 melanoma,> 100 µM
same,TGI,RPMI-8226 leukemia,> 100 µM
same,TGI,OVCAR-5 ovarian,> 100 µM
same,TGI,CCRF-CEM leukemia,> 100 µM
same,TGI,HCT-15 colon,> 100 µM
same,TGI,SF-295 CNS,> 100 µM
same,TGI,TK-10 renal,> 100 µM
same,TGI,NCI-H522 lung,> 100 µM
same,TGI,PC-3 prostate,> 100 µM
same,TGI,HOP-62 NSCLC,> 100 µM
same,TGI,A549 NSCLC,> 100 µM
same,TGI,SK-MEL-5 melanoma,> 100 µM
same,TGI,SNB-19 CNS,> 100 µM
same,TGI,SK-OV-3 ovarian,> 100 µM
same,TGI,OVCAR-3 ovarian,> 100 µM
same,TGI,RXF 393 renal,> 100 µM
same,TGI,SK-MEL-2 melanoma,> 100 µM
same,TGI,HCT-116 colon,> 100 µM
same,TGI,K-562 leukemia,> 100 µM
same,TGI,SK-MEL-28 melanoma,> 100 µM
same,TGI,SW-620 colon,> 100 µM
same,TGI,MOLT-4 leukemia,> 100 µM
same,TGI,SF-268 CNS,> 100 µM
same,TGI,U251 CNS,> 100 µM
same,TGI,BT-549 breast,> 100 µM
same,TGI,UACC-62 melanoma,> 100 µM
same,TGI,MDA-N,> 100 µM
same,TGI,UACC-257 melanoma,> 100 µM
same,TGI,HS 578T breast,> 100 µM
same,TGI,CAKI-1 renal,> 100 µM
same,TGI,OVCAR-8 ovarian,> 100 µM
same,TGI,MDA-MB-435,> 100 µM
same,TGI,MALME-3M melanoma,> 100 µM
same,TGI,HT29 colon,> 100 µM
same,TGI,EKVX NSCLC,> 100 µM
same,TGI,COLO 205 colon,> 100 µM
same,TGI,HL-60(TB) leukemia,> 100 µM
same,TGI,SF-539 CNS,> 100 µM
same,TGI,T-47D breast,> 100 µM
same,TGI,A498 renal,> 100 µM
same,TGI,MDA-MB-231 breast,> 100 µM
same,TGI,SN12C renal,> 100 µM
same,TGI,NCI/ADR-RES ovarian,> 100 µM
same,TGI,UO-31 renal,> 100 µM
same,TGI,DU-145 prostate,> 100 µM
same,TGI,HOP-92 NSCLC,> 100 µM
same,TGI,NCI-H23 lung,> 100 µM
same,TGI,ACHN renal,> 100 µM
